Experiment [1] concerns the target T1, NLRP3 (Homo sapiens, UniProt Q96P20). Nature of the experiment: Human whole blood (hWB) NLRP3 Assay. Also noted: Blood is collected from healthy volunteers in heparin lithium tubes; from tissue; host or cells: pooled heparinised whole blood from healthy human volunteers, LPS-primed, ATP-stimulated. Type of experiment: cell-based. The procedure:
Blood is collected from healthy volunteers in heparin lithium tubes. • 2. Plate 90 μL of pooled blood per well in 96-well U-bottom plates. • 3. Add 5 uL of 20×LPS (20 ug/mL, final concentration of 1 ug/mL) and mix by gentle pipetting. • 4. Incubate in TC incubator for 4.5 hours. • 5. Add 5 uL of 20× compound or vehicle per well and mix by gentle pipetting. • a. Compounds are diluted 1/50 in HBSS to prepare a 20× dilution curve in 2% DMSO • 6. Incubate for 30 minutes in TC incubator with shaking (450 rpm). • 7. […] Incubate in TC incubator for 30 minutes with shaking (450 rpm). • 9. Centrifuge plate for 10 minutes at 800×g and carefully remove ˜70 μL of plasma. Freeze plasma if required. • 10. Analyze human IL-1b with IL-1b MSD assay (K151TUK) • a.

The target of experiment [2] is T1, NLRP3. Nature of the experiment: Human PBMC NLRP3 Assay. Type of experiment: cell-based. The protocol: Human PBMC NLRP3 Assay: Cryopreserved PBMCs were rapidly thawed in a 37° C. water bath for 2 min. […] A count was undertaken using a hemocytometer and adjusted to 2.5×10^5 cells/mL. V-shaped 96-well plates were seeded with 200 μL of PMBCs (5×10^4) per well and subsequently incubated overnight at 37° C. with 5% CO2. Assay Media was then prepared containing 100 ng/ml of LPS. PBMCs were then centrifuged at 1,200 RPM for 5 min, serum containing media was aspirated, and 150 μL/well of Assay Media+LPS was immediately added. Assay Media without LPS was added in the untreated control wells. Cells were then primed with LPS for 4 h at 37° C. with 5% CO2. A concentration response curve (CRC) was prepared of 1000× test compound in 100% DMSO. The CRC was then diluted 1:50 in Assay Media and then further diluted by 1:5× in Assay Media resulting in a final 4×CRC in 0.4% DMSO/Assay Media. 50 μL/well of 4× test compound CRC or vehicle (0.4% DMSO/Assay Media) was then transferred into each well and subsequently incubated for 30 min at 37° C. with 5% CO2. Cells were stimulated by adding 4 μL of 250 mM ATP, using a 250 mM stock prepared in 1 M Hepes without further dilution (for a final concentration of 5 mM), for 1 h at 37° C. with 5% CO2. Plates were then centrifuged at 1200 RPM for 5 min; and 50 μl of the media was transferred to a clean 96-well storage plate for cytokine measurements using the mesoscale platform, and stored at −80° C. until analyzed.

Where [3] appears, read: LPS 1 ug/mL 4.5 h, compound 30 min, ATP 5 mM 30 min, IL-1b MSD assay, potency code.
Setting [4] is: human PBMCs primed with LPS 4 h, compound 30 min, ATP 5 mM 1 h, cytokine measurement on mesoscale platform, potency code.
Setting [5] is: Table 6: regioisomer comparison.
[6] abbreviates: Table 5: fused bicyclic analogs vs monocyclic pyridazines.

The text below walks through data of patent publication US12281112B2, “Compounds for inhibiting NLRP3 and uses thereof” (Ventus Therapeutics U.S., Inc., priority 2021, dated 2025).

In general, IC50 refers to the midpoint of a concentration-inhibition curve. A low value points to greater potency.

T1 sequence (Q96P20 whole entry): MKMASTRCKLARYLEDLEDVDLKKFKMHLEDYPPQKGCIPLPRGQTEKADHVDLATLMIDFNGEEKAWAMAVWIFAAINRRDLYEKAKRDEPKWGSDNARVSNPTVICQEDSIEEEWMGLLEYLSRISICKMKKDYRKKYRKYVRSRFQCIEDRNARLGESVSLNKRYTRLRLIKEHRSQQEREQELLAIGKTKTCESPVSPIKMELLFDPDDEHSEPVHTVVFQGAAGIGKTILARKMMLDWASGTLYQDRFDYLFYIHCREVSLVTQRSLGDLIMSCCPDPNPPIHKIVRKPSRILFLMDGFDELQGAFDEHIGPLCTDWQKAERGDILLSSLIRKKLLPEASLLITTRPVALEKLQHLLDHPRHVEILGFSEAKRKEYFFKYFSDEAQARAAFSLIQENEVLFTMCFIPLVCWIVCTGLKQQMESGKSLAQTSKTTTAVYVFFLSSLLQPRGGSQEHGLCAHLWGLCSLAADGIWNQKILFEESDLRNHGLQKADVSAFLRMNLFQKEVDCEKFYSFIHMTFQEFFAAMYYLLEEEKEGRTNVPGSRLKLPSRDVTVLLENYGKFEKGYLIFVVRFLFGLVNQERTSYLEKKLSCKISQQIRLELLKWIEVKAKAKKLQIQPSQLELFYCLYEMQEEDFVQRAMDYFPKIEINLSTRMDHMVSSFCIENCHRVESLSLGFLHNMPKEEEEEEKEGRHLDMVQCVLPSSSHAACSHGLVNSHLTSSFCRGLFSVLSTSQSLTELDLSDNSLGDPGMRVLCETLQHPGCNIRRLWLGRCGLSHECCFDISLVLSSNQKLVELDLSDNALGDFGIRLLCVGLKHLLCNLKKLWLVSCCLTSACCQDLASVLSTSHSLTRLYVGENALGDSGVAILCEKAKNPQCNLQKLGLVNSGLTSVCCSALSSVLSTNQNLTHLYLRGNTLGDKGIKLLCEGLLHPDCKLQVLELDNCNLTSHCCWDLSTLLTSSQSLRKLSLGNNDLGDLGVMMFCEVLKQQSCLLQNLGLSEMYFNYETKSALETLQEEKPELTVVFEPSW

Take `Clc1ccc(-c2nnc(OC[C@H]3CCCO3)c3ccncc23)cc1` [Compound 4, (R)-4-(4-chlorophenyl)-1-((tetrahydrofuran-2-yl)methoxy)pyrido[3,4-d]pyridazine]: at NLRP3 [1] (setting [3]), the IC50 lay within 300 to 500 nM.
Consider `FC(F)(F)c1ccc(-c2nnc(NCC3CCCO3)c3ccccc23)cc1` (stereo not shown) [Compound 11, N-(tetrahydrofuran-2-ylmethyl)-4-[4-(trifluoromethyl)phenyl]phthalazin-1-amine], for which the IC50 against NLRP3 [2] (setting [4]) and against NLRP3 [1] (setting [3]) was below 300 nM each time.
Take `OCCNc1nnc(-c2ccc(Cl)cc2)c2ccccc12` [Compound 16, 2-[[4-(4-chlorophenyl)phthalazin-1-yl]amino]ethanol]: the IC50 against NLRP3 [1] (setting [3]) was 500 to 1000 nM.
For the compound `Clc1ccc(-c2nnc(NCC3COCCO3)c3ccccc23)cc1` (single isomer, unassigned) [Compound 23], the IC50 is 500 to 1000 nM against NLRP3 [2] (setting [4]) and above 1000 nM against NLRP3 [1] (setting [3]).
On to `Clc1ccc(-c2nnc(NCC3CCCO3)c3ccncc23)cc1` (stereo not shown) [Compound 15, 4-(4-chlorophenyl)-N-(tetrahydrofuran-2-ylmethyl)pyrido[3,4-d]pyridazin-1-amine], for which the IC50 is above 1000 nM at NLRP3 [2] (setting [4]) and 500 to 1000 nM on NLRP3 [1] (setting [3]).
Consider `Clc1ccc(-c2ccc(NCC3CCCO3)nn2)cc1` (stereo not shown) [drawing 171], for which the results for the IC50 at NLRP3 [2] (setting [5]) and against NLRP3 [1] (setting [5]) were 64000 nM and above 50000 nM, respectively.
At NLRP3 [2] (setting [4]), `COC(C)(C)CNc1nnc(-c2ccc(Cl)cc2O)c2ccncc12` [Compound 83, 5-chloro-2-(4-((2-methoxy-2-methylpropyl)amino)pyrido[3,4-d]pyridazin-1-yl)phenol] came in with an IC50 below 300 nM.
In turn, `Clc1ccc(-c2ccc(NCC3CCCO3)nn2)cc1` (stereo not shown) [drawing 169] had a 50% inhibitory concentration (IC50) against NLRP3 [2] (setting [6]) of 64000 nM.
Compound `CC1COC(CNc2nnc(-c3ccc(Cl)cc3)c3ccccc23)C1` (stereo not shown) [Compound 22, 4-(4-chlorophenyl)-N-[(4-methyltetrahydrofuran-2-yl)methyl]phthalazin-1-amine] showed an IC50 against NLRP3 [1] (setting [3]) of 500 to 1000 nM.
On NLRP3 [1] (setting [3]), `Clc1ccc(-c2nnc(OC[C@H]3CCCO3)c3cnccc23)cc1` [Compound 3, (R)-1-(4-chlorophenyl)-4-((tetrahydrofuran-2-yl)methoxy)pyrido[3,4-d]pyridazine] had an IC50 of 300 to 500 nM.
As for `Oc1cc(Cl)ccc1-c1nnc(NC[C@H]2CCC(F)(F)C2)c2cnccc12` (single isomer, unassigned) [Compound 91], the IC50 on NLRP3 [2] (setting [4]) was below 300 nM.
Consider `COCCNc1nnc(-c2ccc(Cl)cc2)c2ccccc12` [Compound 18, 4-(4-chlorophenyl)-N-(2-methoxyethyl)phthalazin-1-amine], for which the IC50 on NLRP3 [1] (setting [3]) is below 300 nM.
Regarding `CC(C)(O)CNc1nnc(-c2ccc(Cl)cc2O)c2ccncc12` [Compound 82, 5-chloro-2-(4-((2-hydroxy-2-methylpropyl)amino)pyrido[3,4-d]pyridazin-1-yl)phenol], the IC50 on NLRP3 [2] (setting [4]) is below 300 nM.
In turn, `Brc1ccc(-c2nnc(NCC3CCCO3)c3ccccc23)cc1` (stereo not shown) [drawing 168] had an IC50 on NLRP3 [2] (setting [6]) of 190 nM.
Consider `CC1(CNc2nnc(-c3ccc(Cl)cc3)c3ccccc23)CCCO1` (stereo not shown) [Compound 8, 4-(4-chlorophenyl)-N-[(2-methyltetrahydrofuran-2-yl)methyl]phthalazin-1-amine], for which, at NLRP3 [1] (setting [3]), the IC50 was below 300 nM.
`Brc1ccc(-c2ccc(NCC3CCCO3)nn2)cc1` (stereo not shown) gave an IC50 against NLRP3 [2] (setting [6]) of 3800 nM.
At NLRP3 [1] (setting [3]), `Clc1ccc(-c2nnc(NC[C@@H]3CCCO3)c3ccncc23)cc1` [Compound 2, (S)-4-(4-chlorophenyl)-N-((tetrahydrofuran-2-yl)methyl)pyrido[3,4-d]pyridazin-1-amine] came in with an IC50 below 300 nM.
At NLRP3 [1] (setting [3]), `Clc1ccc(-c2nnc(NCC3CCCOC3)c3ccccc23)cc1` (stereo not shown) [Compound 9, 4-(4-chlorophenyl)-N-(tetrahydropyran-3-ylmethyl)phthalazin-1-amine] had an IC50 of 500 to 1000 nM.
In turn, `Clc1ccc(-c2nnc(NCC3CCCO3)c3ccncc23)cc1` (single isomer, unassigned) yielded an IC50 at NLRP3 [2] (setting [5]) of 2900 nM.
As for `Cc1cc(Cl)ccc1-c1nnc(NCC2CCCO2)c2ccccc12` (stereo not shown) [Compound 20, 4-(4-chloro-2-methyl-phenyl)-N-(tetrahydrofuran-2-ylmethyl)phthalazin-1-amine], the IC50 at NLRP3 [2] (setting [4]) and against NLRP3 [1] (setting [3]) was 300 to 500 nM throughout.
For `Clc1ccc(-c2nnc(NC[C@H]3CCCO3)c3cc(Cl)ccc23)cc1` (racemic) [Compound 21, 7-chloro-4-(4-chlorophenyl)-N-[[rac-(2R)-tetrahydrofuran-2-yl]methyl]phthalazin-1-amine], the figures for the IC50 at NLRP3 [2] (setting [4]) and on NLRP3 [1] (setting [3]) were 300 to 500 nM and below 300 nM, respectively.
Regarding `Clc1ccc(-c2nnc(NCC3COCCO3)c3ccccc23)cc1` (single isomer, unassigned) [Compound 24], on NLRP3 [1] (setting [3]), the IC50 was below 300 nM.
With `Brc1ccc(-c2nnc(NCC3CCCO3)c3ccccc23)cc1` (stereo not shown) [Compound 7, 4-(4-bromophenyl)-N-(tetrahydrofuran-2-ylmethyl)phthalazin-1-amine], the IC50 on NLRP3 [2] (setting [4]) was below 300 nM; at NLRP3 [1] (setting [3]) it was above 1000 nM.
`CN(CC1CCCO1)c1nnc(-c2ccc(Cl)cc2)c2ccccc12` (stereo not shown) [Compound 19, 4-(4-chlorophenyl)-N-methyl-N-(tetrahydrofuran-2-ylmethyl)phthalazin-1-amine] returned an IC50 against NLRP3 [1] (setting [3]) of 300 to 500 nM.
As for `CC1(CNc2ccc(-c3ccc(Br)cc3)nn2)CCCO1` (stereo not shown) [Compound 6, 6-(4-bromophenyl)-N-[(2-methyltetrahydrofuran-2-yl)methyl]pyridazin-3-amine], the figures for the IC50 on NLRP3 [2] (setting [4]) and on NLRP3 [1] (setting [3]) were above 1000 nM and below 300 nM, respectively.
Consider `CN1CCC[C@H]1CNc1nnc(-c2ccc(Cl)cc2O)c2ccncc12` [Compound 93, (S)-5-chloro-2-(4-(((1-methylpyrrolidin-2-yl)methyl)amino)pyrido[3,4-d]pyridazin-1-yl)phenol], for which the IC50 against NLRP3 [2] (setting [4]) is below 300 nM.
`Oc1cc(Cl)ccc1-c1nnc(N[C@H]2CCOC2)c2cnccc12` [Compound 89, (S)-5-chloro-2-(4-((tetrahydrofuran-3-yl)amino)pyrido[3,4-d]pyridazin-1-yl)phenol] returned an IC50 against NLRP3 [2] (setting [4]) below 300 nM.
On NLRP3 [1] (setting [3]), `Clc1ccc(-c2nnc(NCC3CCOCC3)c3ccccc23)cc1` [Compound 10, 4-(4-chlorophenyl)-N-(tetrahydropyran-4-ylmethyl)phthalazin-1-amine] returned an IC50 above 1000 nM.
For the compound `Clc1ccc(-c2nnc(NCC3CCCCO3)c3ccccc23)cc1` (stereo not shown) [Compound 17, 4-(4-chlorophenyl)-N-(tetrahydropyran-2-ylmethyl)phthalazin-1-amine], the IC50 at NLRP3 [1] (setting [3]) was above 1000 nM.
